The text below walks through data of paper PMC3906059, “Activation and Inhibition of TMEM16A Calcium-Activated Chloride Channels” (PLoS ONE, 2014).

The test system of one experiment is CaCC of Xenopus oocytes. Set-up: method as in PMID 11279188. The settings on record: cited from earlier work.
In experiment [1] the target is T1, TMEM16A (ANO1) (Mus musculus, UniProt Q8BHY3).
T1 construct: We subcloned the coding region of the cDNA into pEGFP-N3 vector; expressed in transfected cells; host or cells: HEK293 cells
T1 sequence (Q8BHY3 1-956 isoform Q8BHY3-2): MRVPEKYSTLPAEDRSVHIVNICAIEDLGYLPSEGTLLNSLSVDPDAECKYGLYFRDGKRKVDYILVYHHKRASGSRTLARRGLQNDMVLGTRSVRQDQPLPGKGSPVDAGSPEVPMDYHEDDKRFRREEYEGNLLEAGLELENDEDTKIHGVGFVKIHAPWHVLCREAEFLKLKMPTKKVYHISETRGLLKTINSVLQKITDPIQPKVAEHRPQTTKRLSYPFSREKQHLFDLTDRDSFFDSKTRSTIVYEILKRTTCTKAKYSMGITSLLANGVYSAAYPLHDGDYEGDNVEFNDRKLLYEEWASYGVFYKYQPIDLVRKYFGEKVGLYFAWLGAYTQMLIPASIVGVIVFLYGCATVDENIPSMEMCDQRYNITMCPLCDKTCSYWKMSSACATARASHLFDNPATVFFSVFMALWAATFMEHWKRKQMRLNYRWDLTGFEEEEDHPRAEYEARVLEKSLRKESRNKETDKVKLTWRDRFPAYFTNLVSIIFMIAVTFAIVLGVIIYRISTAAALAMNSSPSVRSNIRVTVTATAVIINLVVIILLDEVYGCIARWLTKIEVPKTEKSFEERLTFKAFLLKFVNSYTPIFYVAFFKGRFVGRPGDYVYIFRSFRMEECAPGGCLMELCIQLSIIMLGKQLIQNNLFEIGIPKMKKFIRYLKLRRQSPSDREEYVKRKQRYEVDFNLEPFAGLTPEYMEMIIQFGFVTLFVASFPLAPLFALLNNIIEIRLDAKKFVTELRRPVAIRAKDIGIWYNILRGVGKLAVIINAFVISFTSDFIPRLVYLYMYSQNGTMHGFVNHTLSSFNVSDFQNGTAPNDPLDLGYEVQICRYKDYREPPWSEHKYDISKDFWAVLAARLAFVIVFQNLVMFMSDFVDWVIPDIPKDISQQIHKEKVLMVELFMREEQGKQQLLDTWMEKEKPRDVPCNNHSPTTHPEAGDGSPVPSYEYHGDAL
Nature of the experiment: Anion permeability of the ANO1 pore, Erev under bi-ionic conditions. The note with it: for permeability ratio PX/PCl: Ca^2+-activated current, calculated from Erev after junction potential correction; for zero current potential of I–V curve: example ramp −80 to +80 mV, [Ca^2+] = 20 µM, intracellular salt 140 mM (NaHCO3 130 mM + 10 mM NaCl). It counts as cell-based. The text has this: (§1) The mouse TMEM16A cDNA (NCBI reference sequence: NM_001242349.1) encoding ANO1 CaCC was a generous gift from Dr. Lily Jan. We subcloned the coding region of the cDNA into pEGFP-N3 vector (Clontech Laboratories, Inc.), resulting in a construct in which an enhanced green fluorescent protein (eGFP) was attached to the C-terminus of the ANO1 protein. The sequence was confirmed by commercially-available DNA sequencing service. This eGFP-attached ANO1 cDNA construct was used for channel expression throughout the study. The cDNA was transfected into human embryonic kidney (HEK) 293 cells using lipofectamine transfection methods, [42], [43]. A fluorescent light source and a GFP filter set (Chroma Technology Co.) in the DM IRB inverted microscope (Leica Microsystems) were used to identify transfected cells expressing channel proteins. Electrophysiological experiments were performed ∼24 to 72 hours after transfection.
The anion permeability of the ANO1 pore was examined under bi-ionic conditions in which the extracellular solution contained 140 mM NaCl (the zero-Ca^2+ solution). The intracellular solution contained 140 mM sodium salts of various anions with the exception of the HCO3 ^− experiment in which the solution contained 130 mM NaHCO3 and 10 mM NaCl. In all intracellular solutions for the bi-ionic experiments, 0.1 mM EGTA and 0.12 mM total Ca^2+ or Sr^2+ were added to the solution to activate the ANO1 channel (Free [Ca^2+] or [Sr^2+] were saturating concentrations). Erev of the open channel was measured in two ways. First, under voltage-clamp configuration, a 3-sec voltage ramp from −80 mV to +80 mV was applied and the Erev of the leak-subtracted I-V curve was then determined (see Fig. 5 A & B). The second method employed the current-clamp (I = 0) mode in which the patch was exposed to divalent cations throughout the recording (Fig. 5 C and Fig. 6 A & C). When the intracellular solution contained the same concentration of Cl^− as that in the extracellular side, the recorded voltage (EI = 0) was normally close to 0 mV. When the intracellular solution was replaced by the one containing other anions, the value of EI = 0 changed to a new value corresponding to the Erev of the new ionic condition. It is important to point out that the measurement of Erev can be imprecise if the amplitude of the ANO1 current is not within a proper range. Therefore, in permeability ratio measurements we only used the data obtained from patches with a maximal current in the range of 100 pA–1000 pA at +40 mV. All the presented Erev values (and the recording traces for measuring Erev) are not corrected for junction potential difference between solutions because the junction potentials are relatively small. However, the reported permeability ratios were calculated based on the junction potential-corrected Erev. The correction for the junction potential results in very small changes in the calculated permeability ratios.
The permeability ratios of various anions versus Cl^− (PX/PCl, where X represents various anions) were calculated using the Erev obtained from bi-ionic experiments according to the following equation (eq. 3), PX/PCl = exp[Erev/(RT/F)], where R, T, and F are the gas constant, absolute temperature, and Faraday constant, respectively. Comparing the difference between Erev’s of the Ca^2+- and Sr^2+-activated current was performed using the pair t test at the significant level of 0.05.

For experiment [2], the target named is T1, TMEM16A (ANO1). Kind of experiment: Activation of ANO1 current by divalent cations, excised inside-out patch with fast solution exchange. It counts as cell-based. The settings on record: for maximal ANO1 current activated by saturating divalent cation compared with Is induced by saturating [Ca^2+]: Is induced by 20 µM Ca^2+, ±40 mV; for Hill coefficient (n) of dose-response activation curve / EC50: values covering +40 and −40 mV; for EC50: read-out: K1/2 of ANO1 activation.
Source text: as §1
All chemicals were reagent grade. Regular salts (such as NaCl, NaOH, CaCl2, SrCl2, BaCl2, MgCl2 or sodium salts of various anions) were purchased from Fisher Chemicals (Fair Lawn, NJ), J. T. Baker (Phillipsburg, NJ) or Sigma Chemicals Co. (St. Louis, MO). EGTA, HEPES, and NFA were from Sigma Chemicals Co. Excised inside-out patch-clamp recordings were performed throughout the study. The extracellular (pipette) solution in all experiments contained: 140 mM NaCl, 10 mM HEPES, 0.1 mM EGTA, pH = 7.4. The regular intracellular solution contained 10 mM HEPES and 140 mM sodium salt of Cl^− or other anions. Various concentrations of divalent cations were made by adding certain total concentrations of divalent cations (Cl^− salts) into the solution containing a defined concentration of EGTA. We defined the pipette solution as the “zero-Ca^2+” solution. A solution containing a saturating [Ca^2+] was made by adding 0.12 mM total [Ca^2+] into the aforementioned zero-Ca^2+ solution, resulting in a solution containing ∼20 µM free [Ca^2+]. For making non-saturating [Ca^2+] solutions, the solutions included 1 mM EGTA. To make solutions containing Sr^2+ and Ba^2+, only 0.1 mM EGTA was used. The pH of all solutions was adjusted to 7.4.
Because of weak Mg^2+-EGTA binding, we referred the total [Mg^2+] as the free [Mg^2+]. The free [Ca^2+], [Sr^2+], and [Ba^2+] were calculated using the MaxChelator program (Ver1.2) kindly provided by Chris Patton from the Stanford University. This program was developed based on the binding constants available in the National Institute of Standard and Technology (NIST) between EGTA and these three divalent cations. Table S1, Table S2, and Table S3 list respectively the calculated free [Ca^2+], [Sr^2+], and [Ba^2+] used in this study. All added divalent cations were Cl^− salts. […] For example, in a solution containing 5 mM, 10 mM or 30 mM MgCl2, only 130 mM, 120 mM or 80 mM of NaCl, respectively, were added to the solution.
The patch-clamp recording pipettes were fabricated from borosilicate glass capillaries (World Precision Instruments) using PP830 electrode puller (Narishige International). When filled with the pipette solution, the electrode resistance was ∼1.5–3 MΩ. The experiments were carried out at room temperature (20–23°C) using the Axopatch 200B amplifier controlled by the Digidata I/O converter and the pClamp9 software (Axon Instruments/Molecular Devices).
Solution exchange was achieved using the SF-77 solution exchanger (Warner Instruments). After the excised inside-out patch mode was established, the tip of the patch pipette was positioned at the exit of the solution-delivery pipes of the SF-77 solution exchanger. The switch of solution pipes was controlled by a digital signal delivered from the Digidata 1320 digitizing board. […]

[3] abbreviates: Ca^2+-activated current (20 µM), 140 mM extracellular NaCl, anion as intracellular sodium salt 140 mM (HCO3: 130 mM NaHCO3 + 10 mM NaCl), without junction potential correction, averaged.
[4] abbreviates: current activated by 20 µM Sr^2+, current clamp (I = 0), without correcting for junction potential.

“And” between values parts separate entries of the source, which are not always exact repeats. Equal entries are not always repeated. “Also recorded” adds a separate entry of the source.

Regarding `O=S(=O)(O)c1cc(N=C=S)ccc1C=Cc1ccc(N=C=S)cc1S(=O)(=O)O` [DIDS], in the experiment on CaCC of Xenopus oocytes, the “voltage dependence of inhibition” value is “voltage dependent”.
Turning to `O=C([O-])O.[Na+]` [HCO3 ^−], the “Erev (bi-ionic potential)” value at TMEM16A (ANO1) [1] (setting [3]) was −27.6±2.4 mV. Moreover, the “permeability ratio PX/PCl” value at TMEM16A (ANO1) [1] is about 0.3. Besides, the “zero current potential of I–V curve” value on TMEM16A (ANO1) [1] (140 mM extracellular NaCl) is -27 mV.
Take `O=C(O)c1ccccc1Nc1ccccc1` [DPC]: in the experiment on CaCC of Xenopus oocytes, the “sideness of the block” value is reported as “from the extracellular side” and the “voltage dependence of inhibition” value is on record as “voltage dependent”.
On to `O=[N+]([O-])[O-].[Na+]` [NO3 ^−], for which the “Erev (bi-ionic potential)” value at TMEM16A (ANO1) [1] (setting [3]) stood at 32.9±1.1 mV; at TMEM16A (ANO1) [1] (setting [4]), 31.3±0.5 mV. Moreover, the “permeability ratio PX/PCl” value at TMEM16A (ANO1) [1] is about 3.5. Besides, the “zero current potential of I–V curve” value at TMEM16A (ANO1) [1] (140 mM extracellular NaCl) is recorded as “+33 mV”.
For `[I-].[Na+]` [I^−], the “Erev (bi-ionic potential)” value at TMEM16A (ANO1) [1] (setting [3]) was 35.9±3.3 mV; on TMEM16A (ANO1) [1] (Ca^2+-activated current (20 µM), 140 mM extracellular NaCl, anion as intracellular sodium salt 140 mM (HCO3: 130 mM NaHCO3 + 10 mM NaCl), without junction potential correction, averaged, listed as I^–), “~+35 mV”; on TMEM16A (ANO1) [1] (setting [4]) it was 33.4±0.3 mV. Also, the “permeability ratio PX/PCl” value at TMEM16A (ANO1) [1] is about 4.1. Besides, the “zero current potential of I–V curve” value at TMEM16A (ANO1) [1] (140 mM extracellular NaCl) is reported as “+39 mV”.
Regarding `N#C[S-].[Na+]` [SCN^−], the “Erev (bi-ionic potential)” value is 62.0±2.4 mV on TMEM16A (ANO1) [1] (setting [3]); “~+60 mV” on TMEM16A (ANO1) [1] (Ca^2+-activated current (20 µM), 140 mM extracellular NaCl, anion as intracellular sodium salt 140 mM (HCO3: 130 mM NaHCO3 + 10 mM NaCl), without junction potential correction, averaged, listed as SCN^–); 59.4±0.8 mV on TMEM16A (ANO1) [1] (setting [4]). Besides, the “permeability ratio PX/PCl” value at TMEM16A (ANO1) [1] was about 11. In addition, the “zero current potential of I–V curve” value on TMEM16A (ANO1) [1] (140 mM extracellular NaCl) was “+64 mV”. Moreover, the “voltage shift induced by SCN^− in Sr^2+ smaller than that in Ca^2+ by” value at TMEM16A (ANO1) [1] (same patch, 140 mM intracellular NaSCN, 4 patches) is about 1 mV.
On to `N[C@@H](CCC(=O)O)C(=O)[O-].[Na+]` [glutamate, Na-glutamate], for which the “Erev (bi-ionic potential)” value on TMEM16A (ANO1) [1] (setting [3]) is under −80 mV.
`[Br-].[Na+]` [Br^−]: the “Erev (bi-ionic potential)” value at TMEM16A (ANO1) [1] (setting [3]) stood at 18.0±1.2 mV; on TMEM16A (ANO1) [1] (setting [4]), 16.2±0.4 mV. Moreover, the “permeability ratio PX/PCl” value at TMEM16A (ANO1) [1] is about 2.1. Besides, the “zero current potential of I–V curve” value at TMEM16A (ANO1) [1] (140 mM extracellular NaCl) is listed as “+17 mV”.
Take `[Ba+2].[Cl-].[Cl-]` [Ba^2+]: the “fraction of maximal current activated” value at TMEM16A (ANO1) [2] (404 µM [Ba^2+]) is reported as 70–80%. At TMEM16A (ANO1) [2], the “maximal ANO1 current activated by saturating divalent cation compared with Is induced by saturating [Ca^2+]” value was “can activate the same maximal current; also recorded: activated the channel to the same maximal current level”; the “Hill coefficient (n) of dose-response activation curve” value was 1.1–1.4 and 1–1.5; the EC50 was 130 to 230 µM and 100 to 200 µM.
Regarding `[Cl-].[Cl-].[Sr+2]` [Sr^2+], on TMEM16A (ANO1) [2], the “maximal ANO1 current activated by saturating divalent cation compared with Is induced by saturating [Ca^2+]” value was “can activate the same maximal current; also recorded: activated the channel to the same maximal current level”; the “Hill coefficient (n) of dose-response activation curve” value was 2–2.6 and ~2; the EC50 is 5 to 10 µM and ~5 µM. For the same compound, the “difference of Erev between channels activated by Sr^2+ and Ca^2+” value on TMEM16A (ANO1) [1] is 1–2 mV.
Consider `O=C(O)c1c2ccccc2cc2ccccc12` [A9C], for which, in the experiment with CaCC of Xenopus oocytes, the “sideness of the block” value is “from the extracellular side” and the “voltage dependence of inhibition” value is reported as “voltage dependent”.
